Laboratory results from US20030187017A1, “Method for treating functional dyspepsia” (priority 2002, published 2003).

What was measured:
[1] = tested on: FD patients and healthy controls; details: cited from earlier work
FD patients [2] = assay: 12-week double-blind placebo-matched clinical study in FD patients: adequate relief of upper abdominal pain or discomfort and FD symptoms; type: in vivo, human; details: for Average Weekly Adequate Relief of Pain and Discomfort, Adequate Relief Rates: 12 weeks
Experimental: Three hundred and twenty (320) ambulatory outpatient male and female FD patients at least 18 years of age who have chronic or recurrent abdominal pain or discomfort centered in the upper abdomen were randomised for study comprising twelve (12) weeks of treatment: eighty one (81) were randomised to treatment with placebo BID, seventy seven (77) to 0.5 mg BID alosetron, seventy nine (79) to 1 mg BID alosetron, and eighty three (83) to 2 mg BID alosetron. Study participants included patients who have been diagnosed with FD and patients with symptoms that fulfilled the modified Rome criteria for FD for at least 6 months. Study participants were screened for two weeks prior to the testing phase, to confirm symptoms of sufficient severity for participation in the study. During the two-week screening period, those patients enrolled from the U.S. underwent a 90-minute gastric emptying test to characterize their gastric motility. At the end of the two-week period, all study participants underwent an esophagogastroduodenoseope (EGD) to rule out organic disease and obtain a biopsy for H. pylori within one month of screening. The study was double-blinded and placebo-matched. Eligible subjects were randomized (1:1:1:1 ratio) to either alosetron 0.5 mg, 1 mg, 2 mg, or matched placebo twice daily for a 12-week treatment phase followed by a one-week follow-up period. Laboratory evaluations and adverse events were recorded at the 4, 8 and 12-week (or final) treatment visits. The study was designed to elicit measurements relating to efficacy and safety. The primary endpoint was adequate relief of FD (upper abdominal) pain or discomfort. Secondary endpoints included 1) changes in daily upper abdominal pain severity ratings, 2) proportion of pain free days, 3) changes in self-ratings of nausea, early satiety, bloating or distension, post-prandial fullness and burping or belching, 4) changes in quality of life (QOL) SF-36 scores, 5) changes in SCL-90R® scores, and 6) safety and tolerability with respect to the incidence of adverse events and changes in laboratory values. Daily and weekly symptom data were collected using an electronic touch-tone telephone based system described in J. Harding, et al., Gastroenterology 112:[…] (1997); and J. Harding, et al., Aliment Pharm. Ther. 11:1073-761997. Severity of abdominal pain, nausea and bloating were assessed on a daily basis using a five point scale (0=none; 1=very mild; 2=mild; 3=moderate; 4=severe). During screening, the pain severity score was required to average ≧1.5 for entry into the study. During the treatment and follow-up phases, subjects were asked weekly if they had obtained adequate relief of their upper abdominal pain or discomfort during the previous 7 days. Subjects also responded daily to yes/no questions assessing whether early satiety, post-prandial fullness and burping or belching were present. Analyses were by Intent-to-Treat (ITT) using the last observation carried forward (LOCF) method for handling missing data. The ITT population included all subjects randomized to study treatment. The primary efficacy endpoint was the adequate relief of upper abdominal pain or discomfort. The 12-week average rate of adequate relief was calculated as the sum of the number of responses of “yes” over the 12 weeks of the treatment phase divided by 12 and multiplied by 100 using the LOCF approach. The proportion of patients with weekly adequate relief of upper abdominal pain or discomfort was compared between treatment groups using the Mantel-Haenszel test stratified by geographical clusters of treatment centers. Secondary efficacy measures included subject self-rating of pain severity, frequency and the FD symptoms of nausea, bloating/distension, burping/belching, early satiety and post-prandial fullness. […]

FD patients [3] = assay: Adverse events in the 12-week clinical study in FD patients; type: in vivo, human
Experimental: The study was double-blinded and placebo-matched. Eligible subjects were randomized (1:1:1:1 ratio) to either alosetron 0.5 mg, 1 mg, 2 mg, or matched placebo twice daily for a 12-week treatment phase followed by a one-week follow-up period. Laboratory evaluations and adverse events were recorded at the 4, 8 and 12-week (or final) treatment visits.
Adverse events were coded and group by body system. Adverse events occurring after randomization were summarized separately from adverse events occurring during the screening phase. For each body system and over all body systems, the frequency of subjects reporting at least one adverse event was calculated by treatment group. In addition, the number of subjects reporting at least one drug-related adverse event and the number of subjects reporting serious adverse events were summarized by treatment group. The four treatment groups were compared using a correlation chi-square test; pairwise comparisons were made with Fisher's exact test.

healthy subjects = details: isobarometric and isovolumetric gastric distensions; cited from earlier work

Compound: CN1[C@@H]2CC[C@H]1C[C@@H](OC(=O)c1c[nH]c3ccccc13)C2 [tropisetron]
- Gastric accommodation, reflex relaxation or gastric sensitivity [1]: did not influence

Compound: Cc1[nH]cnc1CN1CCc2c(c3ccccc3n2C)C1=O [Alosetron, 2,3,4,5-tetrahydro-5-methyl-2-[(5-methyl-1H-imidazol-4-yl)methyl]-1H-pyrido[4,3-b]indol-1-one]
- Average Weekly Adequate Relief, % with Adequate Relief (FD patients [2]; Abnormal gastric emptying (n = 14-16), 0.5 mg BID): 51%
- Average Weekly Adequate Relief, % with Adequate Relief (FD patients [2]; Abnormal gastric emptying (n = 14-16), 1 mg BID): 59%
- Average Weekly Adequate Relief, % with Adequate Relief (FD patients [2]; Abnormal gastric emptying (n = 14-16), 2 mg BID): 45%
- Abdominal pain and discomfort (FD patients [2]; FD patients, particularly female FD patients): substantially improved
- Average Weekly Adequate Relief of Pain and Discomfort, Adequate Relief Rates (FD patients [2]; Females (n = 50-60), 0.5 mg BID): 49
- Average Weekly Adequate Relief of Pain and Discomfort, Adequate Relief Rates (FD patients [2]; Females (n = 50-60), 1 mg BID): 54
- Average Weekly Adequate Relief of Pain and Discomfort, Adequate Relief Rates (FD patients [2]; Females (n = 50-60), 2 mg BID): 43
- Average Weekly Adequate Relief of Pain and Discomfort, Adequate Relief Rates (FD patients [2]; Males (n = 20-33), 0.5 mg BID): 39
- Average Weekly Adequate Relief of Pain and Discomfort, Adequate Relief Rates (FD patients [2]; Males (n = 20-33), 1 mg BID): 43
- Average Weekly Adequate Relief of Pain and Discomfort, Adequate Relief Rates (FD patients [2]; Males (n = 20-33), 2 mg BID): 40
- Average Weekly Adequate Relief, % with Adequate Relief (FD patients [2]; Normal gastric emptying (n = 32-34), 0.5 mg BID): 60%
- Average Weekly Adequate Relief, % with Adequate Relief (FD patients [2]; Normal gastric emptying (n = 32-34), 1 mg BID): 56%
- Average Weekly Adequate Relief, % with Adequate Relief (FD patients [2]; Normal gastric emptying (n = 32-34), 2 mg BID): 43%
- Improvement in adequate relief by gastric emptying status (FD patients [2]; all doses, subjects with normal and subjects with abnormal gastric emptying): Improvement was observed for all doses
- Adequate relief rate as compared with placebo (FD patients [2]; each dose (0.5, 1, 2 mg BID)): greater adequate relief rate as compared with placebo
- Nausea, early satiety and post-prandial fullness (FD patients [2]; female patients and patients with normal gastric emptying): substantially improved
- Adverse Events: Any event (FD patients [3]; 0.5 mg BID): 68%
- Adverse Events: GI event (FD patients [3]; 0.5 mg BID): 58%
- Adverse Events: Neurology (FD patients [3]; 0.5 mg BID): 9%
- Adverse Events: constipation (FD patients [3]; 0.5 mg BID): 45%
- Adverse Events: Any event (FD patients [3]; 1 mg BID): 68%
- Adverse Events: GI event (FD patients [3]; 1 mg BID): 52%
- Adverse Events: Neurology (FD patients [3]; 1 mg BID): 4%
- Adverse Events: constipation (FD patients [3]; 1 mg BID): 34%
- Adverse Events: Any event (FD patients [3]; 2 mg BID): 75%
- Adverse Events: GI event (FD patients [3]; 2 mg BID): 63%
- Adverse Events: Neurology (FD patients [3]; 2 mg BID): 16%
- Adverse Events: constipation (FD patients [3]; 2 mg BID): 46%
- Tolerability (FD patients [3]; FD patients): well-tolerated
- Visceral perception scores (healthy subjects): effect similar to placebo
